We go through four molecules from US6350729B1, “Inhibition of nitric oxide-mediated hypotension and septic shock with iron-containing hemoprotein” (Board of Regents, The University of Texas System, priority 1992, dated 2002).

In experiment [1] the test system is blood pressure. The following applies: rabbits; cited from earlier work.
Experiment [2] has as its system blood pressure. The following applies: guinea pigs; cited from earlier work.
For experiment [3], the system named is endotoxin-induced hypotension. The experiment in a line: Endotoxin-induced hypotension in anesthetized dog, mean arterial blood pressure. It is filed as in vivo. On the procedure:
Experiments were carried out on conditioned mongrel dogs weighing 23-28 kg. Animal care was in accordance with the recommendations of the American Association for Accreditation of Laboratory Animal Care and met all standards prescribed by the Guide for the Care and Use of Laboratory Animals (Committee on Care and Use of Laboratory Animals (1978) Guide for the Care and Use of Laboratory Animals (Natl. Inst. Health, Bethesda, Md.) DHEW Publ. No. (NIH) 78-83.
The dog was fasted overnight before the day of the experiment and was anesthetized with pentobarbital (25 mg/kg, i.v.), orotracheally intubated and ventilated with a Harvard pump at a nominal rate of 12 breaths per minute and a tidal volume of 15 ml/kg. The dog was instrumented with a cordis for the introduction of a Swan-ganz catheter for measurement of central venous and pulmonary arterial pressures as well as an arterial line for continuous blood pressure monitoring via a computer driven analog to digital processor.
After the blood pressure and heart rate was stabilized, endotoxin was administered to the dog as a bolus injection (50 μg/kg, i.v. in 10 ml DPBS. After the onset of hypotension, a rapid infusion of 50 ml hemoglobin (5.0 g commercially available bovine hemoglobin/100 ml) over 20 seconds was administered by a central venous catheter. Cardiovascular changes were monitored for an additional 12 hrs. after hemoglobin administration.
A tracing depicting endotoxin-induced hypotension, its inhibition by hemoglobin, and subsequent administration of bovine serum albumin (5 grams) is shown in FIG. 1. Mean arterial blood pressure declined from 160 mm Hg to 70 mm Hg two hours after endotoxin administration. The hemoglobin (HgB) was subsequently administered as an intravenous bolus. […] This effect lasted approximately 45 minutes before the blood pressure decline resumed. […] On repetition of this experiment, substantially the same results were obtained.

In a further experiment the test system is rabbit aortic rings. The following applies: cited from earlier work.
The nature of experiment [4]: Kinetic 96-well microplate assay, capture of NO by Fe2+-myoglobin. Conditions: 5 μM Mb, endothelial cell cytosol, 500 μM L-arginine, 500 μM NADPH, 80 mM TRIS pH 7.6, 25° C. It is filed as biochemical. On the procedure: Nitric oxide formation by endothelial cell cytosol was measured by a novel kinetic 96-well microplate assay. The assay is based on the capture of NO by Fe^2+-myoglobin (Mb) which is subsequently oxidized to Fe^3+-myoglobin. The process of heme oxidation was continuously measured in a kinetic microplate reader (Molecular Devices, Menlo Park Calif.) as the rate of change in OD405-OD650. Data points were collected from all 96 wells every 16 sec. for 30 minutes at 25° C. with shaking prior to each OD measurement. The slope of the best fit regression line (OD/min) was used to calculate the rate of NO-synthesis. OD/min measurements were converted to pmoles NO/min by dividing by the increase in OD405-OD650 measured upon complete oxidation of 1 pmole of reduced Mb with a 10-fold molar excess of potassium ferricyanide. Under the conditions employed, the efficiency of NO capture by Mb approached 100%; neither doubling nor halving the concentration of Mb influenced the Mb oxidation rate. All samples contained 5-30 μl of endothelial cell cytosol (1-6 mg protein/ml) and final concentrations of 5 μM Mb, 500 μM L-arginine, 500 μM NADPH and 80 Mm TRIS, pH 7.6.
Fe^2+-Myoglobin Preparation: 2 mM myoglobin (from horse skeletal muscle, Sigma) was reduced with a sodium dithionite and immediately applied to a Sephadex G-25 column, followed by elution with 50 Mm TRIS buffer, Ph 7.6. […]

Like-named read-outs stand apart in the source and are kept apart here.

In the case of `CNC(=N)NCCC[C@H](N)C(=O)O` [N^G-methyl-L-arginine], the “effect on blood pressure” value in the experiment on blood pressure [1] and in the experiment on blood pressure [2] was “increase blood pressure” each time.

For “bovine serum albumin: bovine serum albumin (5 grams) given as protein comparison after hemoglobin [reference compound]”, the “subsequent blood pressure decline” value in experiment [3] (endotoxin-induced hypotension, 5 grams given after the hemoglobin effect ended) was “only slightly influenced”.

Turning to “hemoglobin: commercially available bovine hemoglobin, 5.0 g/100 ml, iron hemoprotein given intravenously”, the “endothelium-dependent relaxation induced by acetylcholine or by A23187” value is “reduced” in the experiment with rabbit aortic rings (1 μM) and “abolished” in the experiment on rabbit aortic rings (10 μM). Further, the “endotoxin-induced mean arterial decline (FIG. 1)” value in experiment [3] (FIG. 1 legend) is “interrupted”. Besides, in experiment [3] (endotoxin 50 μg/kg i.v., 50 ml of 5.0 g/100 ml bovine hemoglobin over 20 seconds), the “duration of effect before the blood pressure decline resumed” value is “approximately 45 minutes”. For the same molecule, in experiment [3] (endotoxin 50 μg/kg i.v., intravenous bolus after mean arterial pressure fell from 160 to 70 mm Hg at two hours), the blood pressure drop result is “abrogated”. In addition, the hypotension entry in experiment [3] (endotoxin 50 μg/kg i.v., intravenous bolus after onset of hypotension) is given as “partially reversed”.

B1: Mb: myoglobin from horse skeletal muscle, Sigma, reduced to Fe2+ form (protein, UniProt P68082 2-154, looked up)
Myoglobin: GLSDGEWQQVLNVWGKVEADIAGHGQEVLIRLFTGHPETLEKFDKFKHLKTEAEMKASEDLKKHGTVVLTALGGILKKKGHHEAELKPLAQSHATKHKIPIKYLEFISDAIIHVLHSKHPGDFGADAQGAMTKALELFRNDIAAKYKELGFQG
As to B1, in experiment [4], the “efficiency of NO capture” value is given as around 100%.
